Consider 15 molecules from patent publication US5358971A, “Substituted 2-aminotetralins” (Whitby Research, Inc., priority 1993, dated 1994).

Counter-ions that a name gives are not always drawn.

One assay concerns dopamine D2. The conditions noted are these: reference compound, in words; cited from earlier work.
In another assay the target is dopamine D2 receptors (Bos taurus, UniProt P20288). Briefly: Radioligand binding to dopamine D2 receptors ([3H]-Spiperone, bovine caudate nuclei). The conditions noted are these: for D2 (pK1) / Ki: bovine caudate nuclei, [3H]-Spiperone, 75 minutes at room temperature, 30 nM ketanserin, two-site fitted model; for Ki: read-out: D2 (pK1) (converted). The protocol: (§1) Radioligand Binding Experiments (Dopamine Receptor Affinity Information; pK1 values):
(§2) Bovine brains were obtained fresh from a local slaughterhouse. The caudate nuclei were dissected out and homogenized in Buffer A (50 mM Tris; 1 mM Na2 -EDTA; 5 mM KCl; 1 mM MgCl2; 2 mM CaCl2; pH 7.4) using a Brinkmann Polytron. The homogenate was centrifuged at 40,000×g for 20 minutes and washed once. The pellet was resuspended in Buffer A, incubated at 37° C. for 15 minutes, then centrifuged. The pellet was washed once more, resuspended to a protein concentration of 5-10 mg/ml in Buffer A and frozen at -70° C. until used.
(§3) To test binding of the compounds to dopamine receptors, the following tritiated drugs were used as radioligands for each of the receptors tested: [^3 H]-Spiperone 21-24 Ci/mmol for D2 receptors and [^3 H]-SCH23390 75-85 Ci/mmol for D1 receptors. The radioligands were incubated with various concentrations of competing drug and bovine membranes for the following times: 75 minutes at room temperature for D2 receptors, and 15 minutes at 37° C. for D1 receptors. Specific binding was defined using 1 μM butaclamol (D2) and 1 μM SCH 23390 (D1). In addition, the D2 assays contained 30 nM ketanserin in order to block the binding of [^3 H]-spiperone to 5-HT2 receptors.
(§4) The assays were terminated by filtration using a 24-port Brandell cell harvester over filters that had been previously soaked in 0.1% polyethyleneimine, and the filters were washed three times by filtration of cold buffer. The filters were then placed in 5 ml scintillation vials to which 4 ml of Beckman Ready-Protein was then added, and each vial was counted for 2 minutes in a Beckman 3801 scintillation counter calibrated for conversion of cpm to dpm. Binding data were analyzed using the Ligand program of Munson and Rodbard (1980). The results are presented as pK1 values in a two-site fitted model.
as §2, with “To test binding to dopamine receptors, the bovine caudate nuclei assay was employed. Bovine” for “Bovine”, “mMMgCl2;” for “mM MgCl2;”, “Brinkman” for “Brinkmann”
(§5) The following tritiated drugs were used as radioligands for each of the receptors tested: [^3 H]-Spiperone 21-24 Ci/mmol for D2 receptors and [^3 H]-SCH23390 75-85 Ci/mmol for D1 receptors. The radioligands were incubated with various concentrations of competing drug and the appropriate membrane source for periods of time as follows: 75 minutes at room temperature for D2 receptors or 15 minutes at 37° C. for D1 receptors. Specific binding was defined using 1 μM butaclamol (D2) or 1 μM SCH23390 (D1). In addition, the D2 assays contained 30nM ketaserin in order to block the binding of ^3 H-spiperone to 5HT2 receptors.
as §4, with “as Ki” for “as pK1”, “values if the data were best fitted to a one-site model, or as Kh and K1 values if” for “values in”, “two-site model produced the better fit.” for “two-site fitted model.”

In a further assay the target is dopamine D1 receptors (Bos taurus, UniProt Q95136). Briefly: Radioligand binding to dopamine D1 receptors ([3H]-SCH23390, bovine caudate nuclei). The conditions noted are these: 15 minutes at 37° C., two-site fitted model; for Ki: read-out: D1 (pK1) (converted). The protocol:
as §1, §2, §3, §4
as §2, with “To test binding to dopamine receptors, the bovine caudate nuclei assay was employed. Bovine” for “Bovine”, “mMMgCl2;” for “mM MgCl2;”, “Brinkman” for “Brinkmann”
as §5
as §4, with “as Ki” for “as pK1”, “values if the data were best fitted to a one-site model, or as Kh and K1 values if” for “values in”, “two-site model produced the better fit.” for “two-site fitted model.”

The subject of another assay is dopamine receptor. The following applies: prior art, in words; cited from earlier work.

Chain of dopamine D1 receptors (Q95136 whole entry): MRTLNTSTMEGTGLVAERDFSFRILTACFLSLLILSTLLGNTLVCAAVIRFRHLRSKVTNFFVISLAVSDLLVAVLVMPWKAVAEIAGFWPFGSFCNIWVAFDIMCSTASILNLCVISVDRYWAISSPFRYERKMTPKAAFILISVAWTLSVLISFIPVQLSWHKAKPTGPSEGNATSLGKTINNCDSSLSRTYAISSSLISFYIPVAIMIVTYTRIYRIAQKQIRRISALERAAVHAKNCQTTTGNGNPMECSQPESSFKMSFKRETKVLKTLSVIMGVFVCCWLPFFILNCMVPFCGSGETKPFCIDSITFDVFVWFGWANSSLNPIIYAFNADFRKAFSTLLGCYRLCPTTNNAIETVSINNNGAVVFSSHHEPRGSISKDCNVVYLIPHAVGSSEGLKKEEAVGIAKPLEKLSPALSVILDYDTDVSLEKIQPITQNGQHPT
Chain of dopamine D2 receptors (P20288 whole entry): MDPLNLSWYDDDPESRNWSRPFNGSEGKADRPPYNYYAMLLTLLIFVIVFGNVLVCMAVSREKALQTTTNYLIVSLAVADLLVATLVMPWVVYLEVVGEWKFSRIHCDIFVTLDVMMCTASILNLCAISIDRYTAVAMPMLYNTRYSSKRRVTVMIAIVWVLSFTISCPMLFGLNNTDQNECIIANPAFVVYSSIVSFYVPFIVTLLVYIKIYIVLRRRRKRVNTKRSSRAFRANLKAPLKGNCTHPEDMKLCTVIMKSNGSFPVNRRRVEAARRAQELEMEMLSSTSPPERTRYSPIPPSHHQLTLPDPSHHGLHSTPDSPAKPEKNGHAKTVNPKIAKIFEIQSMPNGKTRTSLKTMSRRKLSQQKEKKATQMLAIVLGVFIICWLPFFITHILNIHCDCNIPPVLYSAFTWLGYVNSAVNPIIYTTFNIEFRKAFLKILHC

`CCCN(CCc1cccs1)C1CCc2c(O)cccc2C1` (racemic) [Example N-0437, reference compound]: in the assay on dopamine D2, the “dopamine D2 agonist” value is on record as “potent dopamine D2 agonist”. For the same molecule, the “D2 (pK1)” value on dopamine D2 receptors was 6.96.
Turning to `CCCN(CCOc1ccccc1)C1CCc2c(O)cccc2C1` (single isomer, unassigned; (-)) [Example 30, (-)-5,6,7,8-tetrahydro-6-[(2-phenoxyethyl)propylamino]-1-naphthalenol], the values for the Ki at dopamine D1 receptors and at dopamine D2 receptors were 8.71 µM and 170 nM, respectively.
Consider `CCCN(CCOc1ccccc1)C1CCc2c(O)cccc2C1` (stereo not shown) [Example 2, 2-[N-n-propyl,N-2-(phenyloxy)ethylamino]-5-hydroxytetralin], for which the Ki on dopamine D1 receptors is 12 µM. In addition, the Ki at dopamine D2 receptors is 126 nM. Besides, at dopamine D2 receptors (in words), the “affinity for binding to dopamine D2 receptors” value is “high affinity”; the “selectivity for binding to dopamine D2 receptors” value was “high affinity and selectivity”.
`CCCN(CCC1OC(=O)c2ccccc21)C1CCc2c(O)cccc2C1` (stereo not shown) [Example 9, 3-[2-[propyl(1,2,3,4-tetrahydro-5-hydroxy-2-naphthalenyl)amino]ethyl]-l(3H)-isobenzofuranone]: the values for the Ki on dopamine D1 receptors and at dopamine D2 receptors were 2.14 µM and 66.1 nM, respectively.
With `CCCN(CC(c1ccccc1)c1ccccc1)C1CCc2c(O)cccc2C1` (stereo not shown) [Example 12, 2-[N-n-propyl,N-2,2-diphenylethylamino]-5-hydroxytetralin], the Ki at dopamine D1 receptors was 9.12 µM; on dopamine D2 receptors, 46.8 nM.
With `CCCN(CCC(c1ccccc1)c1ccccc1)C1CCc2c(O)cccc2C1` (stereo not shown) [Example 14, 2-[N-n-propyl,N-3,3-diphenyipropylamino]-5-hydroxytetralin], the Ki was 1.38 µM at dopamine D1 receptors and 339 nM at dopamine D2 receptors.
Regarding `CCCN(CCOc1ccc2ccccc2c1)C1CCc2c(O)cccc2C1` (stereo not shown) [Example 32, 5,6,7,8-tetrahydro-6-[(2-(2-naphthalenyloxy)ethyl]propylamino]-1-naphthalenol], the figures for the Ki at dopamine D1 receptors and on dopamine D2 receptors were 4.17 µM and 2630 nM, respectively.
With `CCCN(CCSc1ccccc1)C1CCc2c(O)cccc2C1` (stereo not shown) [Example 34, 5,6,7,8-tetrahydro-6-[(2-thiophenoxyethyl)propylamino]-1-naphthalenol], the Ki on dopamine D1 receptors was 1.29 µM; at dopamine D2 receptors it was 79.4 nM.
In the case of `CCCN(CC[C@H]1OC(=O)c2ccccc21)[C@H]1CCc2c(O)cccc2C1` [Example 36, (S,R)-3-[2-[propyl(1,2,3,4-tetrahydro-5-hydroxy-2-naphthalenyl)amino]ethyl]-l(3H)-isobenzofuranone], the “D1 (pK1)” value at dopamine D1 receptors is listed as 6.56. Moreover, the “D2 (pK1)” value on dopamine D2 receptors is 6.85.
As for `CCCN(CC[C@@H]1OC(=O)c2ccccc21)[C@H]1CCc2c(O)cccc2C1` [Example 37, (S,S)-3-[2-[propyl(1,2,3,4-tetrahydro-5-hydroxy-2-naphthalenyl)amino]ethyl]-1(3H)-isobenzofuranone], the Ki on dopamine D1 receptors was 1.23 µM; at dopamine D2 receptors, 123 nM.
Turning to `CCCN(CCOc1ccccc1)C1CCc2ccc(O)cc2C1` (stereo not shown) [Example 39, 5,6,7,8-tetrahydro-6-[(2-phenoxylethyl)-propylamino]-3-naphthalenol], the Ki at dopamine D1 receptors was 12.3 µM; at dopamine D2 receptors it was 813 nM.
As to `CCCN(CCOc1cccc(F)c1)C1CCc2c(O)cccc2C1` (stereo not shown) [Example 45, 5,6,7,8-tetrahydro-6-[[2(3-fluorophenoxy)ethyl]propylamino]-1-naphthalenol], the Ki was 10.5 µM on dopamine D1 receptors and 316 nM at dopamine D2 receptors.
Regarding `CCCN(CCC1OCc2ccccc21)C1CCc2c(O)cccc2C1` (stereo not shown) [Example 46, 6-[[2-(1,3-dihydro-1-isobenzofuranyl)-ethyl]propylamino]-5,6,7,8-tetrahydro-1-naphthalenol], the “D1 (pK1)” value on dopamine D1 receptors is on record as 5.14. Further, on dopamine D2 receptors, the “D2 (pK1)” value came out at 6.77.
Take `CCCN(CCOc1cccc2ccccc12)C1CCc2c(O)cccc2C1` (stereo not shown) [Example 48, 5,6,7,8-tetrahydro-6-[[2-(1-naphthalenyloxy)ethyl]propylamino]-1-naphthalenol hydrochloride]: the figures for the Ki on dopamine D1 receptors and at dopamine D2 receptors were 13.5 µM and 1150 nM, respectively.
As for `CN1CCc2cccc3c2[C@H]1Cc1ccc(O)c(O)c1-3` [apomorphine], the dopaminergic activity result with dopamine receptor is on record as “high activity”.
